# Patent US9902702B2, “Spirocycloheptanes as inhibitors of rock” (BRISTOL-MYERS SQUIBB COMPANY, priority 2014, dated 2018)
# Where a name gives a salt, the structure may show the parent alone.
# Biological target: ROCK2 (Homo sapiens, UniProt O75116)
# Test: ROCK assay: phosphorylation of FITC peptide substrate, LABCHIP 3000 mobility shift
# Format: biochemical
# Conditions: 5 μM ATP, 1.5 μM peptide substrate; read-out: ROCK2 Activity (ROCK IC50 range)
# Protocol: The effectiveness of compounds of the present invention as ROCK inhibitors can be determined in a 30 μL assay containing 20 mM HEPES, pH 7.5, 20 mM MgCl2, 0.015% Brij-35, 4 mM DTT, 5 μM ATP and 1.5 μM peptide substrate (FITC-AHA-AKRRRLSSLRA-OH). Compounds were dissolved in DMSO so that the final concentration of DMSO was <2%, and the reaction was initiated with Rho kinase variants. After incubation, the reaction was terminated by the addition of EDTA and the phosphorylated and non-phosphorylated peptides separated using a LABCHIP® 3000 Reader (Caliper Life Sciences). […] Compounds were tested in dose-response format, and the inhibition of kinase activity was calculated at each concentration of compound. The inhibition data were fit using a curve-fitting program to determine the IC50; i.e., the concentration of compound required to inhibit 50% of kinase activity.
# Representative Examples were tested in the ROCK assay described above and found having ROCK inhibitory activity.
# Chain of ROCK2 (O75116 whole entry, species assumed): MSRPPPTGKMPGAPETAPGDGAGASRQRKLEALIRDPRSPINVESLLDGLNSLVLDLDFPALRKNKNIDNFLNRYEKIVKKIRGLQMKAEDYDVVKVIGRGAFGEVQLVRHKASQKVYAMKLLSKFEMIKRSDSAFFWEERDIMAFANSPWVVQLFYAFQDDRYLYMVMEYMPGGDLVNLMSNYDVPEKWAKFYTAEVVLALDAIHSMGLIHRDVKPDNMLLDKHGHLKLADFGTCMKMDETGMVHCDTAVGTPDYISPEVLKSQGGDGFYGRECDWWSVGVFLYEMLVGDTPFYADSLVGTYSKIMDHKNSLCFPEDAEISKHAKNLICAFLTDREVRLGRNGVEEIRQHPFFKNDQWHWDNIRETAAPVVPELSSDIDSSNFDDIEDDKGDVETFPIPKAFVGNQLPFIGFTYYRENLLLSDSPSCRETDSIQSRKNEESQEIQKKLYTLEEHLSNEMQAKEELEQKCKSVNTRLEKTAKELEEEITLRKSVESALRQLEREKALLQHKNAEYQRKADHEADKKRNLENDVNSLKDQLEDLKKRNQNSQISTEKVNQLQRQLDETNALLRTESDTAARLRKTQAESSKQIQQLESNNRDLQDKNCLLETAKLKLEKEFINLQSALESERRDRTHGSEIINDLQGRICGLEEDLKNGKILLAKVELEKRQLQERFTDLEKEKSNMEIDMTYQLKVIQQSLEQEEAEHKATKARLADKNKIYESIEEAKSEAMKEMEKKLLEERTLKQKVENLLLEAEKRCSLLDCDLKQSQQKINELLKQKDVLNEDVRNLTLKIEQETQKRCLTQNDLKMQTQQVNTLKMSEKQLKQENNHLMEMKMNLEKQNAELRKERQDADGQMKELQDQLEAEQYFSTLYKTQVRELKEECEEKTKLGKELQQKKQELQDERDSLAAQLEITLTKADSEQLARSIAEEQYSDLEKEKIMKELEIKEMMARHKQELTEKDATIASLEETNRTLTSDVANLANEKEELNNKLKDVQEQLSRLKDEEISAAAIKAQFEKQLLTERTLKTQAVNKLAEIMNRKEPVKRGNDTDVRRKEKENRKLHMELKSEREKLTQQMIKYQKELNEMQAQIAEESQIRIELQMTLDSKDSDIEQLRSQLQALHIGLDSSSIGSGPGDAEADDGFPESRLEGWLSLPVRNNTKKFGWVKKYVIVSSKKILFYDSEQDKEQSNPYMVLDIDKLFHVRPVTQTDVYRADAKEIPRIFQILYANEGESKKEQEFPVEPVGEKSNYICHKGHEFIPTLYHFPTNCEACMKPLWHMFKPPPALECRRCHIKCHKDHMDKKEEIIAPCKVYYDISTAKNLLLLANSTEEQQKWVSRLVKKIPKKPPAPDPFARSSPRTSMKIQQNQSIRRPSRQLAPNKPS
row,IC50,Compound
1,15.1 to 100 nM,"[H][C@]1(c2n[nH]c(=O)c3ccccc32)C[C@]2(C[C@@H](NC(=O)c3ccc(N(C)C)nc3)C2)C1 (stereo partly drawn) [Example 356, 6-(dimethylamino)-N-((aR)-6-(4-oxo-3,4-dihydrophthalazin-1-yl)spiro[3.3]heptan-2-yl)nicotinamide]"
2,2.01 to 5 nM,"O=C(NC1CC2(C1)CC(c1n[nH]c(=O)c3ccccc13)C2)c1cnn2cc(-c3cnn(CC(O)C(F)(F)F)c3)ccc12 [Example 171, N-((αR)-6-(4-oxo-3,4-dihydrophthalazin-1-yl)spiro[3.3]heptan-2-yl)-6-(1-((S)-3,3,3-trifluoro-2-hydroxypropyl)-1H-pyrazol-4-yl)pyrazolo[1,5-α]pyridine-3-carboxamide]"
3,2.01 to 5 nM,"Cc1nn(C)c(C)c1-c1ccc2c(c1)CN(C(=O)NC1CC3(C1)CC(c1n[nH]c(=O)c4ccccc14)C3)C2 [Example 246, N-((aR)-6-(4-oxo-3,4-dihydrophthalazin-1-yl)spiro[3.3]heptan-2-yl)-5-(1,3,5-trimethyl-1H-pyrazol-4-yl)isoindoline-2-carboxamide]"
4,5.1 to 15 nM,"O=C(NC1CC2(C1)CC(c1n[nH]c(=O)c3ccccc13)C2)c1cnn2cc(-n3ccnc3)ccc12 (stereo not drawn) [Example 176, 6-(1H-imidazol-1-yl)-N-((αR)-6-(4-oxo-3,4-dihydrophthalazin-1-yl)spiro[3.3]heptan-2-yl)pyrazolo[1,5-α]pyridine-3-carboxamide]"
5,5.1 to 15 nM,"[H][C@]1(c2n[nH]c(=O)c3ccccc32)C[C@]2(C[C@@H](NC(=O)c3ccc4cn[nH]c4c3)C2)C1 (stereo partly drawn) [Example 316, N-((aR)-6-(4-oxo-3,4-dihydrophthalazin-1-yl)spiro[3.3]heptan-2-yl)-1H-indazole-6-carboxamide]"
6,5.1 to 15 nM,"CC(C)(O)Cn1nc(C(=O)NC2CC3(C2)CC(c2n[nH]c(=O)c4ccccc24)C3)c2ccc(-c3cccc(Cl)c3)cc21 (stereo not shown) [Example 156, 6-(3-chlorophenyl)-1-(2-hydroxy-2-methylpropyl)-N-((αR)-6-(4-oxo-3,4-dihydrophthalazin-1-yl)spiro[3.3]heptan-2-yl)-1H-indazole-3-carboxamide]"
7,2.01 to 5 nM,"Cn1nc(C2CC2)cc1C(=O)NC1CC2(C1)CC(c1n[nH]c(=O)c3ccccc13)C2 [Example 24, 3-cyclopropyl-1-methyl-N-[(aR)-6-(4-oxo-3,4-dihydrophthalazin-1-yl)spiro[3.3]heptan-2-yl]-1H-pyrazole-5-carboxamide]"
8,100 to 2100 nM,"[H][C@]1(c2n[nH]c(=O)c3ccccc32)C[C@]2(C[C@@H](NC(=O)C3NCc4ccccc43)C2)C1 (stereo partly drawn) [Example 323, N-((aR)-6-(4-oxo-3,4-dihydrophthalazin-1-yl)spiro[3.3]heptan-2-yl)isoindoline-1-carboxamide]"
9,100 to 2100 nM,"[H][C@]1(c2n[nH]c(=O)c3ccccc32)C[C@]2(C[C@@H](NC(=O)c3cn(CC(C)(C)O)c4cc(=O)ccn34)C2)C1 (stereo partly drawn) [Example 402, 1-(2-hydroxy-2-methylpropyl)-7-oxo-N-((aR)-6-(4-oxo-3,4-dihydrophthalazin-1-yl)spiro[3.3]heptan-2-yl)-1,7-dihydroimidazo[1,2-a]pyridine-3-carboxamide]"
10,5.1 to 15 nM,"CC(C)n1cc(-c2ccc3c(c2)CCN3C(=O)NC2CC3(C2)CC(c2n[nH]c(=O)c4ccccc24)C3)c(C(F)(F)F)n1 [Example 244, 5-(1-isopropyl-3-(trifluoromethyl)-1H-pyrazol-4-yl)-N-((aR)-6-(4-oxo-3,4-dihydrophthalazin-1-yl)spiro[3.3]heptan-2-yl)indoline-1-carboxamide]"
11,0.2 to 2 nM,"[H][C@]1(c2n[nH]c(=O)c3ccccc32)C[C@]2(C[C@@H](NC(=O)c3ccc(-c4cn[nH]c4)c(C#N)c3)C2)C1 (stereo partly drawn) [Example 417, 3-cyano-N-((aR)-6-(4-oxo-3,4-dihydrophthalazin-1-yl)spiro[3.3]heptan-2-yl)-4-(1H-pyrazol-4-yl)benzamide]"
12,15.1 to 100 nM,"O=C(Nc1ccc(Br)cc1)N[C@H]1CC2(C1)C[C@H](c1n[nH]c(=O)c3ccccc31)C2 (stereo partly drawn) [Example 227, 1-(4-bromophenyl)-3-((aR)-6-(4-oxo-3,4-dihydrophthalazin-1-yl)spiro[3.3]heptan-2-yl)urea]"
13,0.2 to 2 nM,"O=C(NC1CC2(C1)CC(c1n[nH]c(=O)c3ccccc13)C2)c1cnn2cc(Cc3ccccc3)ccc12 [Example 204, 6-benzyl-N-((aR)-6-(4-oxo-3,4-dihydrophthalazin-1-yl)spiro[3.3]heptan-2-yl)pyrazolo[1,5-a]pyridine-3-carboxamide]"
14,5.1 to 15 nM,"CC(C)(O)Cn1nc(C(=O)NC2CC3(C2)CC(c2n[nH]c(=O)n4cccc24)C3)c2ccccc21 (stereo not shown) [Example 278, 1-(2-hydroxy-2-methylpropyl)-N-(6-(4-oxo-3,4-dihydropyrrolo[1,2-d][1,2,4]triazin-1-yl)spiro[3.3]heptan-2-yl)-1H-indazole-3-carboxamide, TFA]"
15,0.2 to 2 nM,"CC(C)(O)COc1ccc2c(C(=O)NC3CC4(C3)CC(c3n[nH]c(=O)c5ccccc35)C4)cnn2c1C1CC1 [Example 97, 7-cyclopropyl-6-(2-hydroxy-2-methylpropoxy)-N-((aR)-6-(4-oxo-3,4-dihydrophthalazin-1-yl)spiro[3.3]heptan-2-yl)pyrazolo[1,5-a]pyridine-3-carboxamide]"
16,5.1 to 15 nM,"[H][C@]1(c2n[nH]c(=O)c3ccccc32)C[C@]2(C[C@@H](NC(=O)c3cnc4cc(C(C)O)ccn34)C2)C1 (stereo partly drawn) [Example 430, 7-(1-hydroxyethyl)-N-((aR)-6-(4-oxo-3,4-dihydrophthalazin-1-yl)spiro[3.3]heptan-2-yl)imidazo[1,2-a]pyridine-3-carboxamide]"
17,5.1 to 15 nM,"[H][C@]1(c2n[nH]c(=O)c3ccccc32)C[C@]2(C[C@@H](NC(=O)c3cc4cccnc4[nH]3)C2)C1 (stereo partly drawn) [Example 312, N-((aR)-6-(4-oxo-3,4-dihydrophthalazin-1-yl)spiro[3.3]heptan-2-yl)-1H-pyrrolo[2,3-b]pyridine-2-carboxamide]"
18,2.01 to 5 nM,"O=C(NC1CC2(C1)CC(c1n[nH]c(=O)c3ccccc13)C2)c1cnn(Cc2ccccc2)c1 [Example 109, 1-benzyl-N-((aR)-6-(4-oxo-3,4-dihydrophthalazin-1-yl)spiro[3.3]heptan-2-yl)-1H-pyrazole-4-carboxamide]"
19,2.01 to 5 nM,"[H][C@]1(c2n[nH]c(=O)c3ccccc32)C[C@]2(C[C@@H](NC(=O)c3cnc4cc(NCC(C)(C)O)ccn34)C2)C1 (stereo partly drawn) [Example 409, 7-((2-hydroxy-2-methylpropyl)amino)-N-((aR)-6-(4-oxo-3,4-dihydrophthalazin-1-yl)spiro[3.3]heptan-2-yl)imidazo[1,2-a]pyridine-3-carboxamide,]"
20,15.1 to 100 nM,"O=C(NC1CC2(C1)CC(c1n[nH]c(=O)c3ccccc13)C2)c1cnn(-c2ccccc2)c1 (stereo not shown) [Example 12, N-[6-(4-oxo-3,4-dihydrophthalazin-1-yl)spiro[3.3]heptan-2-yl]-1-phenyl-1H-pyrazole-4-carboxamide]"
21,5.1 to 15 nM,"[H][C@]1(c2n[nH]c(=O)c3ccccc32)C[C@]2(C[C@@H](NC(=O)c3cc4ccc(F)cc4[nH]3)C2)C1 (stereo partly drawn) [Example 320, 6-fluoro-N-((aR)-6-(4-oxo-3,4-dihydrophthalazin-1-yl)spiro[3.3]heptan-2-yl)-1H-indole-2-carboxamide]"
22,5.1 to 15 nM,"Cc1nc(N2CCC(C#N)C2)sc1C(=O)NC1CC2(C1)CC(c1n[nH]c(=O)c3ccccc13)C2 [Example 39, 2-[(3R)-3-cyanopyrrolidin-1-yl]-4-methyl-N-[(aR)-6-(4-oxo-3,4-dihydrophthalazin-1-yl)spiro[3.3]heptan-2-yl]-1,3-thiazole-5-carboxamide]"
23,2.01 to 5 nM,"O=C(N[C@H]1CC2(C1)C[C@H](c1n[nH]c(=O)c3ccccc31)C2)c1ccn(CC(F)F)n1 (single isomer, unassigned) [Example 16]"
24,0.2 to 2 nM,"[H][C@]1(c2n[nH]c(=O)c3ccccc32)C[C@@]2(C[C@H](NC(=O)c3cnc4cc(N5CC[C@@H](F)C5)ccn34)C2)C1 (stereo partly drawn) [Example 393, 7-((R)-3-fluoropyrrolidin-1-yl)-N-((aR)-6-(4-oxo-3,4-dihydrophthalazin-1-yl)spiro[3.3]heptan-2-yl)imidazo[1,2-a]pyridine-3-carboxamide]"
25,0.2 to 2 nM,"O=C(NC1CC2(C1)CC(c1n[nH]c(=O)c3ccccc13)C2)c1cnn2cc(OCCN3CCCC3)ccc12 [Example 83, N-((aR)-6-(4-oxo-3,4-dihydrophthalazin-1-yl)spiro[3.3]heptan-2-yl)-6-(2-(pyrrolidin-1-yl)ethoxy)pyrazolo[1,5-a]pyridine-3-carboxamide]"
26,2.01 to 5 nM,"[H][C@]1(c2n[nH]c(=O)c3ccccc32)C[C@]2(C[C@@H](NC(=O)c3ccc(-c4cnc(C)s4)c(OC)c3)C2)C1 (stereo partly drawn) [Example 350, 3-methoxy-4-(2-methylthiazol-5-yl)-N-((aR)-6-(4-oxo-3,4-dihydrophthalazin-1-yl)spiro[3.3]heptan-2-yl)benzamide]"
27,15.1 to 100 nM,"[H][C@]1(c2n[nH]c(=O)c3ccccc32)C[C@]2(C[C@@H](NC(=O)c3ccc(-n4cccn4)nc3)C2)C1 (stereo partly drawn) [Example 346, N-((aR)-6-(4-oxo-3,4-dihydrophthalazin-1-yl)spiro[3.3]heptan-2-yl)-6-(1H-pyrazol-1-yl)nicotinamide]"
28,0.2 to 2 nM,"Cc1c(-c2ccc3c(C(=O)N[C@H]4CC5(C4)C[C@H](c4n[nH]c(=O)c6ccccc64)C5)cnn3c2)cnn1C (stereo partly drawn) [Example 216, 6-(1,5-dimethyl-1H-pyrazol-4-yl)-N-((aR)-6-(4-oxo-3,4-dihydrophthalazin-1-yl)spiro[3.3]heptan-2-yl)pyrazolo[1,5-a]pyridine-3-carboxamide]"
